Experimental data published in patent US8877731B2, “Azido nucleosides and nucleotide analogs” (Alios Biopharma, Inc., priority 2010, dated 2014).
Where two headings read alike, the source gives them in different places.

Key:
[1] = test system: RSV Long strain; experiment: RSV CPE reduction assay; type: cell-based
Method: CPE reduction assays were performed as described by Sidwell and Huffman et al., Appl Microbiol. (1971) 22(5):797-801 with slight modifications. HEp-2 cells (ATCC) at a concentration of 6000 cell/well were infected with RSV Long strain (ATCC) at a multiplicity of infection (m.o.i.) of 0.01, and each of the test compounds were provided to duplicate wells at final concentrations starting from 100 μM using ⅓ stepwise dilutions. For each compound, two wells were set aside as uninfected, untreated cell controls (CC), and two wells per test compound received virus only as a control for virus replication (VC). […] At the end of the incubation, 20 μl of cell counting kit-8 reagent (CCK-8, Dojindo Molecular Technologies, Inc.) were added to each well. After 4 hour incubation, the absorbance was measured in each well according to manufacturer's instruction, and the 50% effective concentration (EC50) was calculated by using regression analysis, based on the mean O.D. at each concentration of compound.
(§1) Compounds of Formula (I) and Formula (II) are active in the assay as noted in Tables 2 and 3, where ‘A’ indicates an EC50<1 μM, ‘B’ indicates an EC50 of >1 μM and <10 μM, ‘C’ indicates an EC50>10 μM and <100 μM, and ‘D’ indicates an EC50>100 μM.

[2] = test system: RSV A2; experiment: RSV RT-PCR based assay; type: cell-based
Method: RT-PCR based assays were performed in HEp-2 cells (ATCC: CCL-23) at a concentration of 20000 cell/well were plated in 96 well plates and incubated overnight. Each of the test compounds were ⅓ serially diluted and dosed to HEp-2 cells in duplicates. The highest final concentration for each compound was 100 uM. After 24 hour compound pre-incubation, RSV A2 (ATCC: VR-1540) at MOI of 0.1 was added. Two wells per compound were set aside as uninfected, untreated cell controls (CC), and four wells per test compound received virus only as a control for virus replication (VC). The assay was stopped 4 days after virus infection and conditioned media was removed for viral RNA isolation. The quantities of the RSV virus were measured by real-time PCR using a set of RSV specific primers and probe. The data was analyzed with Prism software with EC50 defined as drug concentration that reduced the viral load 50% from the viral control (VC).
as §1

[3] = human respiratory syncytial virus, 144 h, CPE assay, HEp-2 cells infected with RSV Long strain, m.o.i. 0.01, 6 days, CCK-8 readout, read-out: EC50
[4] = human respiratory syncytial virus, RT-PCR assay, HEp-2 cells, 24 hour compound pre-incubation, RSV A2 at MOI 0.1, 4 days after infection, viral load, read-out: EC50
[5] = human respiratory syncytial virus, HEp-2, 144 h
[6] = human respiratory syncytial virus, HEp-2
[7] = CPE assay, HEp-2 cells infected with RSV Long strain, m.o.i. 0.01, 6 days, CCK-8 readout, read-out: EC50
[8] = RT-PCR assay, HEp-2 cells, 24 hour compound pre-incubation, RSV A2 at MOI 0.1, 4 days after infection, viral load, read-out: EC50

| SMILES | EC50 [1, 3] | EC50 [2, 4] | other results |
| --- | --- | --- | --- |
| CC(C)OP1(=S)OC[C@@]2(N=[N+]=[N-])O[C@@H](n3ccc(=O)[nH]c3=O)[C@H](F)[C@@H]2O1 (some centres unmarked) [Compound 45, 4′-azido-2′-deoxy-2′-fluorouridine 3′,5′-cyclic thiophosphoric acid isopropyl ester] |  |  | EC50 [1, 5]: > 100 µM; EC50 [2, 6]: > 100 µM |
| C[C@H](NP(=O)(OCC1(N=[N+]=[N-])OC(n2cnc3c(=O)[nH]c(N)nc32)C(F)C1O)Oc1ccccc1)C(=O)OC1CCCCC1 (stereo partly drawn) [Compound 31, 4′-azido-2′-deoxy-2′-fluoroguanosine 5′-(O-phenyl-N—((S)-cyclohexoxycarbonyleth-1-yl))phosphoramidate] |  |  | EC50 [1, 7]: < 1 µM; EC50 [2, 8]: < 1 µM |
| COc1nc(N)nc2c1ncn2C1O[C@@](CO)(N=[N+]=[N-])[C@@H](O)[C@H]1F (some centres unmarked) [Compound 49, 2-amino-9-(4-aido-2-deoxy-2-fluoro-1-ribofuranosyl)-6-methoxypurine] |  |  | EC50 [1, 7]: > 100 µM; EC50 [2, 8]: > 100 µM |
| COP1(=S)OC[C@@]2(N=[N+]=[N-])O[C@@H](n3ccc(=O)[nH]c3=O)[C@H](F)[C@@H]2O1 (some centres unmarked) [Compound 41, 4′-azido-2′-deoxy-2′-fluorouridine 3′,5′-cyclic thiophosphoric acid methyl ester] |  |  | EC50 [1, 5]: > 100 µM; EC50 [2, 6]: > 100 µM |
| CC(C)OC(=O)[C@H](C)NP(=O)(OC[C@@]1(N=[N+]=[N-])O[C@@H](n2ccc(=O)[nH]c2=O)[C@@H](C)[C@@H]1O)Oc1ccccc1 (stereo partly drawn) [Compound 36, 4′-azido-2′-deoxy-2′-methylarabinouridine 5′-(O-phenyl-N—(S)-1-(isopropoxycarbonyl)ethyl)phosphoramidate] | > 100 µM | > 100 µM |  |
| [N-]=[N+]=N[C@]1(CO)O[C@@H](n2ccc(N)nc2=O)[C@@H](O)[C@@H]1O [Compound 11, 4′-azidoarabinocytidine] | < 1 µM | < 1 µM |  |
| CC(C)OC(=O)[C@H](C)NP(=O)(OC[C@@]1(N=[N+]=[N-])O[C@@H](n2ccc(=O)[nH]c2=O)[C@@H](O)[C@@H]1O)Oc1ccccc1 (stereo partly drawn) [Compound 35, 4′-azidoarabinouridine 5′-(O-phenyl-N—(S)-1-(isopropoxycarbonyl)ethyl)phosphoramidate] | < 1 µM | < 1 µM |  |
| [N-]=[N+]=N[C@]1(CO)O[C@@H](n2ccc(=O)[nH]c2=O)[C@H](O)[C@@H]1O [Compound 8, 4′-azidouridine] | > 100 µM |  |  |
| [N-]=[N+]=N[C@]1(CO)O[C@@H](n2ccc(=O)[nH]c2=O)[C@@H](O)[C@@H]1O [Compound 12, 4′-azidoarabinouridine] | > 100 µM | > 100 µM |  |
| [N-]=[N+]=N[C@]1(CO)O[C@@H](n2ccc(=O)[nH]c2=O)C(F)(F)[C@@H]1O [Compound 5, 4′-azido-2′-deoxy-2′,2′-difluorouridine] | > 100 µM | > 100 µM |  |
| [N-]=[N+]=N[C@]1(CO)O[C@@H](n2cnc3nc(N)[nH]c(=O)c32)[C@H](O)[C@@H]1O [Compound 25, 2-amino-7-(4-azido-β-D-ribofuranos-1-yl)-1H-purin-6(7H)-one] | > 100 µM | > 100 µM |  |
| CC(C)OC(=O)[C@H](C)NP(=O)(OC[C@@]1(N=[N+]=[N-])O[C@@H](n2ccc(N)nc2=O)[C@@H](O)[C@@H]1O)Oc1ccccc1 (stereo partly drawn) [Compound 34, 4′-azidoarabinocytidine 5′-(O-phenyl-N—(S)-1-(isopropoxycarbonyl)ethyl)phosphoramidate] | > 100 µM | > 100 µM |  |
| CC(C)OC(=O)[C@H](C)NP(=O)(OC[C@@]1(N=[N+]=[N-])O[C@@H](n2ccc(=O)[nH]c2=O)[C@@H](F)[C@@H]1O)Oc1ccccc1 (stereo partly drawn) [Compound 26, 4′-azido-2′-deoxy-2′-fluorouarabinoridine 5′-(O-phenyl-N—(S)-1-(isopropoxycarbonyl)ethyl)phosphoramidate] | > 100 µM | > 100 µM |  |
| C[C@H](NP(=O)(OC[C@@]1(N=[N+]=[N-])O[C@@H](n2cnc3c(=O)[nH]c(N)nc32)[C@H](O)[C@@H]1O)Oc1ccccc1)C(=O)OC1CCCCC1 (stereo partly drawn) [Compound 29, 4′-azidoguanosine 5′-[O-phenyl-N—((S)-cyclohexoxycarbonyleth-1-yl))phosphoramidate] | < 1 µM | < 1 µM |  |
| CC(C)OC(=O)[C@H](C)NP(=O)(OC[C@@]1(N=[N+]=[N-])O[C@@H](n2ccc(N)nc2=O)C(F)(F)[C@@H]1O)Oc1ccccc1 (stereo partly drawn) [Compound 18, 4′-azido-2′-deoxy-2′,2′-difluorocytidine 5′-(O-phenyl-N—(S)-1-(isopropoxycarbonyl)ethyl)phosphoramidate] | 1 to 10 µM | 1 to 10 µM |  |
| [N-]=[N+]=N[C@]1(CO)O[C@@H](n2ccc(N)nc2=O)C(F)(F)[C@@H]1O [Compound 1, 4′-azido-2′-deoxy-2′,2′-difluorocytidine] | < 1 µM | < 1 µM |  |
| [N-]=[N+]=N[C@]1(CO)O[C@@H](n2ccc(=O)[nH]c2=O)[C@@H](F)[C@@H]1O [Compound 20, 4′-azido-2′-deoxy-2′-fluoroarabinouridine] | > 100 µM | > 100 µM |  |
| C[C@@H]1[C@H](n2ccc(N)nc2=O)O[C@@](CO)(N=[N+]=[N-])[C@H]1O [Compound 9, 4′-azido-2′-deoxy-2′-methylarabinocytidine] | > 100 µM |  |  |
| C[C@@H]1[C@H](n2ccc(=O)[nH]c2=O)O[C@@](CO)(N=[N+]=[N-])[C@H]1O [Compound 6, 4′-azido-2′-deoxy-2′-methylarabinouridine] | > 100 µM |  |  |
| [N-]=[N+]=N[C@@]12COP(=O)(O)O[C@H]1[C@@H](F)[C@H](n1ccc(=O)[nH]c1=O)O2 [Compound 32, 4′-azido-2′-deoxy-2′-fluorouridine 3′,5′-cyclic phosphate] | > 100 µM |  |  |

Further lines, with some results ahead:

| EC50 [1, 3] | EC50 [2, 4] | SMILES | other results |
| --- | --- | --- | --- |
| > 100 µM | > 100 µM | CC(C)OC(=O)[C@H](C)NP(=O)(N[C@@H](C)C(=O)OC(C)C)OC[C@@]1(N=[N+]=[N-])O[C@@H](n2ccc(=O)[nH]c2=O)[C@H](F)[C@@H]1O [Compound 40] |  |
|  | 1 to 10 µM | [N-]=[N+]=N[C@]1(CO)O[C@@H](n2ccc(N)nc2=O)[C@H](Cl)[C@@H]1O [Compound 53, 4′-azido-2′-chloro-2′-deoxycytidine] |  |
| < 1 µM | < 1 µM | CC(C)OC(=O)[C@H](C)NP(=O)(N[C@@H](C)C(=O)OC(C)C)OC[C@@]1(N=[N+]=[N-])O[C@@H](n2ccc(N)nc2=O)C(F)(F)[C@@H]1O [Compound 33, 4′-azido-2′-deoxy-2′-difluorocytidine 5′-(N,N′-bis((S)-1-(isopropoxycarbonyl)ethyl))phosphordiamidate] |  |
| > 100 µM | > 100 µM | [N-]=[N+]=N[C@]1(CO)O[C@@H](n2cnc3c(=O)[nH]c(N)nc32)[C@@H](O)[C@@H]1O [Compound 47, 4′-azidoarabinoguanosine] |  |
| > 100 µM | > 100 µM | C[C@]1(F)[C@H](n2ccc(N)nc2=O)O[C@@](CO)(N=[N+]=[N-])[C@H]1O [Compound 38, 4′-azido-2′-deoxy-2′-α-fluoro-2′-β-methylcytidine] |  |
| 10 to 100 µM | 10 to 100 µM | [N-]=[N+]=N[C@]1(CO)O[C@@H](n2cnc(C(N)=O)n2)[C@H](O)[C@@H]1O [Compound 43, 4′-azidoribavirin] |  |
| > 100 µM | > 100 µM | CC(C)OC(=O)[C@H](C)NP(=O)(N[C@@H](C)C(=O)OC(C)C)OC[C@@]1(N=[N+]=[N-])O[C@@H](n2ccc(=O)[nH]c2=O)C(F)(F)[C@@H]1O [Compound 39, 4′-azido-2′-deoxy-2′-difluorouridine 5′-(N,N-bis((S)-isopropoxycarbonyleth-1-yl))phosphordiamidate] |  |
| > 100 µM | > 100 µM | C[C@]1(F)[C@H](n2ccc(=O)[nH]c2=O)O[C@@](CO)(N=[N+]=[N-])[C@H]1O [Compound 51, 4′-azido-2′-deoxy-2′-α-fluoro-2′-β-methyluridine] |  |
| > 100 µM | > 100 µM | CC(C)OC(=O)[C@H](C)NP(=O)(N[C@@H](C)C(=O)OC(C)C)OC[C@@]1(N=[N+]=[N-])O[C@@H](n2ccc(=O)[nH]c2=O)[C@H](O)[C@@H]1O [Compound 44, 4′-azidouridine 5′-(N,N′-bis((S)-1-(isopropoxycarbonyl)ethyl))phosphorodiamidate] |  |
